Laboratory results reported in US8486900B2, “Method for preparing a Centella asiatica extract rich in madecassoside and in terminoloside” (Bayer Consumer Care AG, priority 2002, dated 2013).

Legend:
[1] = tested on: PGE-2; experiment: PMA-induced release of PGE-2 by human keratinocytes; type: cell-based; conditions: for PGE-2 (extracellular): Example 12, K02-1H6, PMA 10 ng/ml, 48 h + 24 h
Procedure: The principle of the assay is based on evaluating the production of pro-inflammatory cytokines by human keratinocytes in response to an irritative stress. […]
Given the lack of effect of IFN-γ on the production and release of PGE-2, the anti-inflammatory effect of the active agents was studied on normal human keratinocytes (strain K02-1H6) stimulated with PMA. Each active agent was tested at 4 concentrations:
1. Treatment of the cells, for 48 h, with the product being studied before induction of the irritative stress.
2. Induction of the irritative stress: PMA (10 ng/ml).
3. Incubation of the “activated” cells, for 24 h, in the presence of the product being studied.
4. Assay of PGE-2 (extracellular) and assay of cellular proteins.
Tables 37 to 39 below group together the amounts of PGE-2 (pg/μg prot.) obtained after activation of the cells (+PMA), and also the basal amounts (−PMA). The PMA-induced production of PGE-2 and the anti-inflammatory activity (AIA) were calculated, for each concentration, according to: PGE-2 production=[(PGE-2(+PMA)−PGE-2(−PMA)] AIA=[(PGE-2 production(control cells)−PGE-2 production(treated cells))/PGE-2 production(control cells)]×100

[2] = tested on: human keratinocytes, strain K02-1H4; experiment: Cytotoxicity, Neutral Red assay on human keratinocytes strain K02-1H4; type: cell-based; conditions: for Viability (72 h), % of control: Example 12, K02-1H4, 72 h
Procedure: In addition, added to the cytotoxicity study was an assay on human keratinocytes, strain K02-1H4, in order to confirm that the concentrations were nontoxic on the target cells.
[…] […] The cell viability was determined by means of a Neutral Red assay.
Added to the cytotoxicity study was an assay on human keratinocytes (strain K02-1H4) in order to confirm the nontoxicity of the concentrations on the “target” cells. Table 24 below groups together all the results (cell viability as % of control).

[3] = tested on: IL-8; experiment: IFN-γ-induced release of IL-8 by normal human keratinocytes; type: cell-based; conditions: for IL-8: Example 12, K02-1H6, IFN-γ 1000 U/ml, 48 h + 24 h
Procedure: (§1) In order to evaluate the anti-inflammatory activity of terminoloside, of madecassoside and of the mixture of heterosides, we studied the modulatory effects of these three active agents with respect to the production and release of proinflammatory epidermal cytokines (IL-1α, IL-8, PGE-2) by human keratinocytes in culture, subjected to an irritative stress induced either with interferon-gamma (IFN-γ) or with PMA. Human keratinocytes were isolated from human skin. The cells were cultured in serum-free KGM medium (Keratinocyte Growth Medium, sold by the company Clonetics®), according to the usual techniques set up in the laboratory, at 37° C. in a humid air-CO2 (95%-5%) atmosphere. The cells were seeded into 25 cm^2 flasks and passaged regularly before reaching confluency. The principle of the assay is based on evaluating the production of proinflammatory cytokines by human keratinocytes, in response to an irritative stress. The method is based on measuring the intracellular amount of IL-1α and of the amounts of IL-8 and of PGE-2 released into the extracellular medium by keratinocytes cultured in the absence and in the presence of the products being studied, and stimulated even with interferon-gamma (IFN-γ) or with PMA (phorbol-12-myristate-13-acetate).
(§2) The study was carried out on keratinocytes isolated from foreskin of young children (strain K02-1H6).
(§3) 1. Treatment of the cells for 48 h with the product being studied before induction of the irritative stress; 2. induction of the irritative stress: IFN-γ (1000 U/ml); 3. incubation of the “activated” cells, for 24 h, in the presence of the product being studied; 4. assay: IL-8 (extracellular) and IL-1α (intracellular). Cellular protein assay.
Tables 32 to 34 below group together the amounts of IL-8 obtained after activation of the cells (+IFN-γ), and also the basal amounts (−IFN-γ). The IFN-γ-induced production of IL-8 and the anti-inflammatory activity (AIA) were calculated, for each concentration of active agent, according to: AIA=[(IL-8(control cells+IFN)−[…]/IL-8(control cells+IFN)]×100

[4] = Solubility
[5] = tested on: IL-1α; experiment: IFN-γ-induced intracellular IL-1α production by normal human keratinocytes; type: cell-based; conditions: for IL-1α (intracellular): K02-1H6, IFN-γ 1000 U/ml, 48 h + 24 h
Procedure: as §1, §2, §3
Tables 34 to 36 below group together the intracellular amounts of IL-1α after activation of the cells (+IFN-γ), and the basal amount (−IFN-γ). The IFN-γ-induced production of IL-1α and the anti-inflammatory activity (AIA) were calculated for each concentration according to: Il-1α production=IL-1α(+IFN)−IL-1α(−IFN) AIA=[(IL-1α production(control cells)−IL-1α production(treated cells)/IL-1α production(control cells)]×100

Structure (SMILES): CC1OC(O[C@@H]2C(CO)OC(OCC3OC(OC(=O)C4CC(C)(C)CC5C6=CCC7C(CC(O)C8C(C)(CO)C(O)C(O)CC78C)C6(C)CCC45)[C@@H](O)C(O)[C@@H]3O)[C@@H](O)C2O)[C@@H](O)C(O)[C@H]1O (stereo partly drawn) [Terminoloside, 1-[O-α-L-rhamnopyranosyl-(1-4)-O-β-glucopyranosol-(1-6)]-O-β-D-glucopyranose 2α,3β,6β,23-tetrahydroxyolea-12-en-28-oate]
- PGE-2 production (+PMA minus −PMA) ([1]; Example 12, 0.1 mg/ml): 494.2
- PGE-2 production (+PMA minus −PMA) ([1]; Example 12, 0.25 mg/ml): 441.0
- PGE-2 production (+PMA minus −PMA) ([1]; Example 12, 0.5 mg/ml): 279.9
- PGE-2 production (+PMA minus −PMA) ([1]; Example 12, 1 mg/ml): 115.2
- PGE-2 (extracellular) ([1]; 0.1 mg/ml): 660.0 pg/μg prot
- PGE-2 (extracellular) ([1]; 0.25 mg/ml): 606.80 pg/μg prot
- PGE-2 (extracellular) ([1]; 0.5 mg/ml): 445.7 pg/μg prot
- PGE-2 (extracellular) ([1]; 1 mg/ml): 321.0 pg/μg prot
- Anti-inflammatory activity (%), PGE-2 ([1]; Example 12, PMA 10 ng/ml, 1 mg/ml): 68.6%
- inhibition at 100 µg/mL ([1]; Homo sapiens, Keratinocyte, Example 12, PMA 10 ng/ml, 0.1 mg/ml, read-out: Anti-inflammatory activity (%), PGE-2): 0%
- inhibition at 250 µg/mL ([1]; Homo sapiens, Keratinocyte, Example 12, PMA 10 ng/ml, 0.25 mg/ml, read-out: Anti-inflammatory activity (%), PGE-2): 10.8%
- inhibition at 500 µg/mL ([1]; Homo sapiens, Keratinocyte, Example 12, PMA 10 ng/ml, 0.5 mg/ml, read-out: Anti-inflammatory activity (%), PGE-2): 43.4%
- inhibition at 1000 µg/mL ([1]; Homo sapiens, Keratinocyte, Example 12, PMA 10 ng/ml, 1 mg/ml, read-out: Anti-inflammatory activity (%), PGE-2): 69%
- Viability (72 h), % of control ([2]; 0.25 mg/ml): 101%
- Viability (72 h), % of control ([2]; 0.5 mg/ml): 103%
- Viability (72 h), % of control ([2]; 0.75 mg/ml): 103%
- Viability (72 h), % of control ([2]; 1.0 mg/ml): 102%
- Viability (72 h), % of control ([2]; 2.5 mg/ml): 99%
- Viability (72 h), % of control ([2]; 5 mg/ml): 96%
- Viability (72 h), % of control ([2]; 10 mg/ml): 69%
- nontoxic concentrations ([2]; K02-1H4, 72 h of incubation): less than or equal to 2.5 mg/ml
- IL-8 ([3]; 0.1 mg/ml): 0.862 pg/μg prot
- IL-8 ([3]; 0.25 mg/ml): 0.762 pg/μg prot
- IL-8 ([3]; 0.5 mg/ml): 0.708 pg/μg prot
- IL-8 ([3]; 1 mg/ml): 0.492 pg/μg prot
- inhibition at 100 µg/mL ([3]; Homo sapiens, Keratinocyte, Example 12, IFN-γ 1000 U/ml, 0.1 mg/ml, read-out: Anti-inflammatory activity (%), IL-8): 0%
- inhibition at 250 µg/mL ([3]; Homo sapiens, Keratinocyte, Example 12, IFN-γ 1000 U/ml, 0.25 mg/ml, read-out: Anti-inflammatory activity (%), IL-8): 9%
- inhibition at 500 µg/mL ([3]; Homo sapiens, Keratinocyte, Example 12, IFN-γ 1000 U/ml, 0.5 mg/ml, read-out: Anti-inflammatory activity (%), IL-8): 15%
- inhibition at 1000 µg/mL ([3]; Homo sapiens, Keratinocyte, Example 12, IFN-γ 1000 U/ml, 1 mg/ml, read-out: Anti-inflammatory activity (%), IL-8): 42%
- solubility [4]: water-soluble
- IL-1α production (+IFN minus −IFN) ([5]; 0.1 mg/ml): 6.07
- IL-1α production (+IFN minus −IFN) ([5]; 0.25 mg/ml): 5.37
- IL-1α production (+IFN minus −IFN) ([5]; 0.5 mg/ml): 4.60
- IL-1α production (+IFN minus −IFN) ([5]; 1 mg/ml): 2.31
- inhibition at 100 µg/mL ([5]; Homo sapiens, Keratinocyte, IFN-γ 1000 U/ml, 0.1 mg/ml, read-out: Anti-inflammatory activity (%), IL-1α): 17%
- inhibition at 250 µg/mL ([5]; Homo sapiens, Keratinocyte, IFN-γ 1000 U/ml, 0.25 mg/ml, read-out: Anti-inflammatory activity (%), IL-1α): 27%
- inhibition at 500 µg/mL ([5]; Homo sapiens, Keratinocyte, IFN-γ 1000 U/ml, 0.5 mg/ml, read-out: Anti-inflammatory activity (%), IL-1α): 37%
- inhibition at 1000 µg/mL ([5]; Homo sapiens, Keratinocyte, IFN-γ 1000 U/ml, 1 mg/ml, read-out: Anti-inflammatory activity (%), IL-1α): 68%
- IL-1α (intracellular) ([5]; 0.1 mg/ml): 8.78 pg/μg prot
- IL-1α (intracellular) ([5]; 0.25 mg/ml): 8.08 pg/μg prot
- IL-1α (intracellular) ([5]; 0.5 mg/ml): 7.31 pg/μg prot
- IL-1α (intracellular) ([5]; 1 mg/ml): 5.02 pg/μg prot
